Data taken from ChEMBL document CHEMBL1275484, “Rifampin and rifaximin resistance in clinical isolates of Clostridium difficile” (Antimicrob Agents Chemother, 2008).

Experiments:
Clostridioides difficile = test: Antimicrobial activity against Clostridium difficile clinical isolate obtained from patient after completion of two courses of drug treatment; format: functional
[1] = Drug level in diarrhea patient feces at 400 mg, po every 12 hrs for 3 days; format: ADME, organism-based; details: human, read-out: Drug uptake

CO[C@H]1/C=C/O[C@@]2(C)Oc3c(C)c(O)c4c(O)c(c5c(nc6cc(C)ccn65)c4c3C2=O)NC(=O)/C(C)=C\C=C\[C@H](C)[C@H](O)[C@@H](C)[C@@H](O)[C@@H](C)[C@H](OC(C)=O)[C@@H]1C [RIFAXIMIN]
MIC (Clostridioides difficile): > 256 µg/mL
concentration at 3 days [1]: 8e+06 ng/g
